Laboratory results reported in patent publication US11478527B2, “FGF receptor ligands for treating diabetes and obesity” (Albert Einstein College of Medicine, priority 2015, dated 2022).

What was measured:
HFD-fed mice [1] = settings: U0126 thirty minutes before FGF19 injection
Experimental: ERK1/2 signaling involved in FGF19-glucose metabolism regulation. […] Mice were treated twice with FGF19 (starting 16 hours after fasting and 6.5 hours apart) and tissues were collected 90 minutes after the last ip injection (2C) Analysis of co-localization between Npy-hrGFP positive neurons (lighter gray) and p-ERK1/2 positive cells (darker gray) in 24 h fasted ob/ob Npy-hrGFP mice following intraperitoneal injections of FGF19. (2D) Quantification of Npy-hrGFP positive neurons that colocalize with pERK1/2 staining in ARC (Bregma −1.7 to −1.9 mm) of ob/ob Npy-hrGFP mice (10 sections from 3 mice were examined in each group). (2E) Representative sections showing absence of co-localization between Pomc-eGFP positive neurons (lighter gray) and p-ERK1/2 positive cells (darker gray) in 24 h fasted ob/ob Pomc-eGFP mice following intraperitoneal injections of FGF19. *P<0.05, ***P<0.005.
It was assessed whether increased ERK1/2 activation could mediate the glucose lowering effect of FGF19.

AGRP/NPY neurons = assay: Colocalization of phospho-ERK1/2 with Npy-GFP in ARC after intraperitoneal FGF19; format: in vivo; settings: 24 h fasted Npy-hrGFP ob/ob mice
Experimental: FIG. 2A-2E. ERK1/2 signaling involved in FGF19-glucose metabolism regulation.
The neuronal population targeted by FGF19 was investigated. 24 h fasted Npy-hrGFP transgenic mice deficient in leptin (Npy-hrGFP ob/ob), in which AGRP/NPY neurons in ARC appear GFP+, were injected intraperitoneally with FGF19 and the colocalization between phospho-ERK1/2 and Npy-GFP was analyzed in ARC. […] Overall, the data support that central FGF19 improved glucose metabolism required activation of ERK1/2 signaling and that AGRP/NPY neurons are a likely mediator of FGF19 action.

POMC neurons = assay: Colocalization of phospho-ERK1/2 with Pomc-eGFP in ARC after intraperitoneal FGF19; format: in vivo; settings: 24 h fasted Pomc-eGFP ob/ob mice
HFD-fed mice [2] = settings: FGF19 injected centrally and peripherally; previously shown (3); cited from earlier work
[3] = test system: hypothalamic AGRP/NPY neurons; settings: cited from earlier work
8 month old outbred mice = assay: Oral glucose tolerance test after intraparenchymal injection of peptide into the mediobasal hypothalamus; format: in vivo
Experimental: A peptide of 13 amino acids ([…]) (SEQ ID NO:4) was synthesized based on the conserved sequences between the FGF8 and FGF17 b splice isoforms and the helical nature of this region of FGF8 based on a published crystal structure. This peptide was injected intraparenchymally into the mediobasal hypothalamus of 8 month old outbred mice. Having been fasted overnight, the mice were subjected to an oral glucose tolerance test (2 mg/g of glucose) using a crossover design to obtain a control condition. […] With aCSF, the median area under the curve for the 3 hour GTT was 43,747 mg-min/dL whereas it was […] with F8b13. Blood glucose concentrations were not different before the glucose load. These FGF derived peptide antagonists are useful as therapeutic agents in diabetes and obesity conditions.

N#CC(=C(/N)Sc1ccccc1N)/C(C#N)=C(\N)Sc1ccccc1N [U0126]
effect of U0126 pre-treatment on the glucose lowering effect of FGF19 (HFD-fed mice [1]): blocked the glucose lowering effect of FGF19

FGF19: endocrine fibroblast growth factor
colocalization of FGF19-induced pERK1/2 staining with NPY-GFP+ neurons in ARC (AGRP/NPY neurons): colocalized with NPY-GFP+ neurons
colocalization of Pomc-eGFP positive neurons with pERK1/2 staining in ARC (POMC neurons): do not colocalize
glucose handling in obese mice (ob/ob) and high fat fed mice (HFD-fed mice [2]): could improve glucose handling
induction of AGRP and NPY mRNA ([3]; mice fasted overnight): prevented the induction of AGRP and NPY mRNA
ERK1/2 activation in hypothalamic AGRP/NPY neurons ([3]; mouse, in vivo): activated ERK1/2
FOS in hypothalamic AGRP/NPY neurons ([3]; mouse, in vivo): FOS was reduced
effects on POMC neurons ([3]; mouse, in vivo): no effects

PNFTQHVREQSLV (peptide fragment based on human sequence) [F8b13]
glucose tolerance compared to the same mice after aCSF (8 month old outbred mice; oral GTT 2 mg/g glucose, overnight fast, crossover design): improved glucose tolerance
median area under the curve for the 3 hour GTT (8 month old outbred mice; oral GTT 2 mg/g glucose, overnight fast, crossover vs aCSF, intraparenchymal injection into mediobasal hypothalamus): 33500 mg·min/dL
blood glucose concentrations before the glucose load (8 month old outbred mice; overnight fasted, vs aCSF): not different
